Measurements as given in PMC8669712, “G Protein-Coupled Receptor GPR35 Suppresses Lipid Accumulation in Hepatocytes” (ACS Pharmacology & Translational Science, 2021).
“Also recorded” adds a separate entry of the source.

What was measured:
human GPR35a = human GPR35a (Homo sapiens, UniProt Q9HC97); assay: β-arrestin-based interaction assay, agonist potency at human GPR35a; type: cell-based
HepG2 cells = assay: Label-free cellular impedance assay (xCELLigence) in HepG2 cells; type: cell-based, human
Description: HepG2 cells were seeded onto xCELLigence E plates (2 × 10^4 cells/well) and incubated for 24 h at 37 °C. To evaluate GPR35 activation and its downstream G protein signaling, HepG2 cells or primary mouse hepatocytes were exposed to GPR35 antagonists or G protein inhibitors 1 h (overnight for Pertussis toxin) prior to GPR35 agonist stimulation. After the addition of GPR35 agonist or vehicle control, the impedance (represented as “cell index”) was recorded every 30 s over a 2 h period using xCELLigence RTCA (Agilent). Each experiment was repeated at least three times.

[1] = test system: GPR35 knock-out clones of HepG2 cells; assay: Oil Red O lipid accumulation in GPR35 knock-out clones of HepG2 cells; type: cell-based, human; conditions: lodoxamide 1 × 10^–6 M or 1 × 10^–5 M
Description: Human hepatocellular carcinoma HepG2 cells were grown in Minimum Essential Medium (MEM) supplemented with 10% fetal bovine serum (FBS), 2 mM L-glutamine, 1× non-essential amino acid, 1 mM sodium pyruvate, and 1× penicillin/streptomycin. Materials for cell culture were all from Sigma-Aldrich (St. Louis, MO) or Thermo Fisher Scientific (Waltham, MA). Cells were incubated in a humidified CO2 incubator at 37 °C. Experiments were performed when cell confluence reached 80%. Cells were seeded onto a 12-well plate (1 × 10^5 cells/well) for 24 h prior to drug treatment. […] Expression of full-length mRNA from the GPR35 gene was eliminated using a dual synthetic gRNA/RNP approach[43] with one guide cutting the intron and one in the exon region to generate a nonfunctional GPR35 protein. The gRNAs were designed with the CRISPR Finder (Welcome Sanger Institute). […] Transfected cells were plated and analyzed for editing efficiency 24-48 h after electroporation. […] To further quantify and capture the genomic DNA deletion, PCR primers listed in Table S1 were designed to amplify the genomic DNA surrounding the target site. […] The amplified PCR products were subjected to paired-end sequencing using NextSeq500 from Illumina using paired-end chemistry with a 150-bp read length. […] The impedance was recorded using xCELLigence RTCA. […] Lipid accumulation was measured by Oil Red O staining.

[2] = test system: GPR35a-reconstituted clone 27 HepG2 cells; assay: Oil Red O lipid accumulation in GPR35a-reconstituted clone 27 cells; type: cell-based, human; conditions: clone 27, 72 h
Description: Briefly, CRISPR KO cells were transiently transfected 24 h with the human GPR35a expression vector using LipofectAMINE 3000 reagent, according to the manufacturer’s instructions. […] Alternatively, after 24 h transfection, cells were seeded onto a 12-well plate (1 × 10^5 cells/well) for 24 h at 37 °C. Then, cells were incubated with T0901317 and/or GPR35 agonists (in MEM containing 5% FBS) for 72 h. After the drug treatment, cells were stained with Oil Red O to examine the levels of lipid accumulation. Each experiment was repeated at least three times.
Lipid accumulation was measured by Oil Red O staining. A working solution of Oil Red O was prepared, as described with modification.[46] After drug treatment, cells were washed with PBS and fixed with formalin solution for 1 h at 4 °C. Then, cells were stained with Oil Red O working solution for 10 min at room temperature. After PBS washing, Oil Red O was extracted from cells using 150 μl of isopropanol and OD510 nm measured. […] These cells were then stained with Hoechst 33342 (1 μg/mL) and the fluorescence intensity of Hoechst (represents the DNA content in cells) was measured using a CLARIOstar plate reader (BMG LABTECH). Oil Red O accumulation was corrected for differences in DNA content and expressed as relative absorbency, taking the control condition (treated with vehicle only) as 1.

[3] = test system: hepatocytes from hGPR35a-HA-expressing mice; assay: Oil Red O lipid accumulation in hepatocytes from hGPR35a-HA-expressing mice; type: cell-based, mouse
Description: All mice were bred as WT or homozygous onto a C57BL/6N background. Animals were cared for in accordance with national guidelines on animal experimentation. All animal experiments were conducted under a home office license held by the authors. WT, humanized GPR35a, or KO male mice at 3–4 months of age were used in this study. These mice were fed ad libitum with a standard mouse chow diet. Briefly, mouse primary hepatocytes were isolated using a two-step collagenase perfusion technique.[45] Twelve-well plates or xCELLigence E plates were coated with rat tail collagen I solution (Thermo Fisher Scientific) overnight at 37 °C and washed with PBS. Isolated primary hepatocytes were seeded onto 12-well plates (8 × 10^4 cells/well) or xCELLigence E plates (2 × 10^4 cells/well) in Wiliam’s E medium (Thermo Fisher Scientific) supplemented with 10% fetal bovine serum (FBS) and 1× penicillin/streptomycin. Cells were maintained for 7 days with a fresh medium change every other day. […] Human GPR35 activation was examined using xCELLigence RTCA assay. To access the impact of GPR35 agonists on the lipid accumulation, WT and humanized GPR35 hepatocytes were incubated with T0901317 and/or GPR35 agonists/antagonists, as indicated (in DMEM medium containing 5% FBS and 1.5% BSA) for 48 h. Alternatively, GPR35 KO hepatocytes were incubated with drugs, as indicated for 5 days. In the T0901317 pretreatment model, human GPR35 hepatocytes were stimulated with T0901317 for 2 days and then further treated with lodoxamide for a further 3 days. After each drug treatment, hepatocytes were stained with Oil Red O and quantified as described. Each experiment was repeated at least three times.
Lipid accumulation was measured by Oil Red O staining. A working solution of Oil Red O was prepared, as described with modification.[46] After drug treatment, cells were washed with PBS and fixed with formalin solution for 1 h at 4 °C. Then, cells were stained with Oil Red O working solution for 10 min at room temperature. After PBS washing, Oil Red O was extracted from cells using 150 μl of isopropanol and OD510 nm measured. After the lipid extraction, cells were further soaked in PBS overnight at 4 °C. These cells were then stained with Hoechst 33342 (1 μg/mL) and the fluorescence intensity of Hoechst (represents the DNA content in cells) was measured using a CLARIOstar plate reader (BMG LABTECH). Oil Red O accumulation was corrected for differences in DNA content and expressed as relative absorbency, taking the control condition (treated with vehicle only) as 1.

Sequence of human GPR35a (Q9HC97 whole entry): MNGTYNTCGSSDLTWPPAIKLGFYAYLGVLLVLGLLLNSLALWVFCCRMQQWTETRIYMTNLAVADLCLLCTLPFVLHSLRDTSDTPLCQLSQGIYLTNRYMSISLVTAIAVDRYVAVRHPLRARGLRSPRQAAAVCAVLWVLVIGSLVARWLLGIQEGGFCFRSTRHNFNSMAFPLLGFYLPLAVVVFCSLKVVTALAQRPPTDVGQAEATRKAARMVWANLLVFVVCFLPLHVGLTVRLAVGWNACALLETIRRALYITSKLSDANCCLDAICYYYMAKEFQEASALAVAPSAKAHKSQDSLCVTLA

ratio (log) (H/M) (human GPR35a; log ratio of potency at human GPR35a over mouse GPR35): 2.66 ± 0.05
EC50 (human GPR35a; β-arrestin-based interaction assay, read-out: human GPR35a, pEC50 (converted)): 4.17 nM
SMILES: N#Cc1cc(NC(=O)C(=O)O)c(Cl)c(NC(=O)C(=O)O)c1 [lodoxamide, 2-[2-chloro-5-cyano-3-(oxaloamino)anilino]-2-oxoacetic acid]
impedance signal in parental HepG2 cells (HepG2 cells; 1 × 10^–5 M): produced positive signals
time for the impedance signal to reach a plateau (HepG2 cells; HepG2 cells, lodoxamide 1 × 10^–8 M): ≤ 5 min
suppression of the effect of T0901317 on lipid accumulation in GPR35 knock-out clones [1]: unable to suppress the effect of T0901317
lipid accumulation induced by T0901317 in GPR35a-reconstituted cells [2]: again able to prevent the lipid accumulation
EC50 ([3]; Mus musculus, Hepatocyte, hepatocytes from hGPR35a-HA-expressing mice, co-addition with T0901317 8 × 10^–6 M, 48 h, read-out: EC50 for prevention of T0901317-induced lipid accumulation): 17 nM
reversal of pre-established lipid accumulation ([3]; T0901317 8 × 10^–6 M for 2 days, then lodoxamide added with continued T0901317): sufficient to reduce lipid levels to those observed in the absence of T0901317; also recorded: reduced to basal
potency in the reversal setting relative to co-addition ([3]; T0901317 pretreatment model): less potent than when added alongside T0901317
